Key:
E. faecalis 945 = assay: agar diffusion test (Test System II, multi-resistant germs); format: cell-based, Enterococcus faecalis; parameters: key: r = resistant (no detectable zone of inhibition)
In short: (§1)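 A McFarland 0.5 bacterial suspension in physiological saline is spread vertically, horizontally and transversely over Müller-Hinton agar II. Three sensi-discs bearing 10, 50 and 100 μg of test compound go onto each plate, which then incubates at 37 °C for 18-20 h before zone diameters are recorded.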

S. epidermidis 1068 = assay: as above; format: cell-based, Staphylococcus epidermidis
In short: as §1

S. epidermidis 1071 = assay: as above; format: cell-based, Staphylococcus epidermidis
In short: as §1

S. epidermidis 563 = assay: as above; format: cell-based, Staphylococcus epidermidis
In short: as §1

S. epidermidis 847 = assay: as above; format: cell-based, Staphylococcus epidermidis
In short: as §1

[1] = logP value by HPLC according to Donovan et al.; details: HPLC with methanol/0.1% phosphoric acid gradient, pH 2
Method: • Operating temperature 18-24° C. • Flow 1.5 mL/min • Linear gradient (methanol/0.1% phosphoric acid pH 2) from 10% to 100% methanol in 9.4 min, equilibrium time between 2 runs 6 min
ca. 0.5 mg of analyte is added to 0.5 ml of a standard solution (440 mg methyl phenyl sulfonate and 380 μl toluene in 150 mL methanol). 2 μl of this sample solution is injected.
Because the distribution coefficients of the two standards running in each test are known, the distribution coefficient of the analytes can be determined from the relationships of the analyte/standard retention times.

S. aureus 38418 = assay: agar diffusion test (Test System II, multi-resistant germs); format: cell-based, Staphylococcus aureus
In short: as §1

S. aureus ATCC 6538 = assay: as above; format: cell-based, Staphylococcus aureus
In short: as §1

[2] = tested on: Enterococcus faecalis 769; assay: as above; format: cell-based; parameters: key: r = resistant (no detectable zone of inhibition)
In short: as §1

[3] = tested on: Staphylococcus aureus 315; assay: as above; format: cell-based; parameters: key: r = resistant (no detectable zone of inhibition)
In short: as §1

[4] = tested on: Escherichia coli SBUG 1135; assay: agar diffusion test (Test System 1, antimicrobial effect); format: cell-based
In short: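 E. coli SBUG 1135 grown 17 h at 37° C, 180 rpm, diluted 1:100 and seeded in nutrient agar at ~10^6 cells. Discs loaded with 10, 50 or 100 μg compound (methanol or water); inhibition-zone diameter (mm) read after 20 h at 37° C.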

S. aureus 33490 = assay: agar diffusion test (Test System II, multi-resistant germs); format: cell-based, Staphylococcus aureus; parameters: key: r = resistant (no detectable zone of inhibition)
In short: as §1

S. aureus 520 = assay: as above; format: cell-based, Staphylococcus aureus; parameters: key: r = resistant (no detectable zone of inhibition)
In short: as §1

S. aureus 39105 = assay: as above; format: cell-based, Staphylococcus aureus; parameters: key: r = resistant (no detectable zone of inhibition)
In short: as §1

S. aureus 34289 = assay: as above; format: cell-based, Staphylococcus aureus; parameters: key: r = resistant (no detectable zone of inhibition)
In short: as §1

S. aureus 526 = assay: as above; format: cell-based, Staphylococcus aureus; parameters: key: r = resistant (no detectable zone of inhibition)
In short: as §1

S. aureus 36881 = assay: as above; format: cell-based, Staphylococcus aureus; parameters: key: r = resistant (no detectable zone of inhibition)
In short: as §1

[5] = tested on: S. aureus North Germany strain; assay: as above; format: cell-based, Staphylococcus aureus; parameters: key: r = resistant (no detectable zone of inhibition)
In short: as §1

B. subtilis AWD 166 = assay: agar diffusion test (antimicrobial effect); format: cell-based, Bacillus subtilis
In short: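 Nutrient agar seeded with B. subtilis AWD 166 to give dense non-confluent colonies; compounds in methanol or distilled water applied to discs at 10, 50, 100 μg. After 20 h at 37 °C, inhibition zone diameter measured in mm.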

S. epidermidis 125 = assay: agar diffusion test (Test System II, multi-resistant germs); format: cell-based, Staphylococcus epidermidis
In short: as §1

[6] = tested on: Bacillus megaterium SBUG 1152; assay: agar diffusion test (Test System 1, antimicrobial effect); format: cell-based
In short: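 B. megaterium SBUG 1152 grown overnight (17 h, 37° C., 180 rpm) and seeded at 10^6 cells per 10 ml nutrient agar. Compound at 10, 50 and 100 μg, dissolved in methanol or water, applied to paper discs. Inhibition-zone diameter (mm) read after 20 h at 37° C.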

CC1=C(C(=O)O)N2C(=O)[C@@H](NC(=O)[C@H](N)c3ccc(O)cc3)[C@H]2SC1 [2a, Cefadroxil, reference compound]
Diameter of zone of inhibition (E. faecalis 945; Quantity n 0.019): r
Diameter of zone of inhibition (E. faecalis 945; Quantity n 0.1): r
Diameter of zone of inhibition (E. faecalis 945; Quantity n 0.19): r
Diameter of zone of inhibition (S. epidermidis 1068; Quantity n 0.019): 20 mm
Diameter of zone of inhibition (S. epidermidis 1068; Quantity n 0.1): 24 mm
Diameter of zone of inhibition (S. epidermidis 1068; Quantity n 0.19): 26 mm
Diameter of zone of inhibition (S. epidermidis 1071; Quantity n 0.019): 22 mm
Diameter of zone of inhibition (S. epidermidis 1071; Quantity n 0.1): 28 mm
Diameter of zone of inhibition (S. epidermidis 1071; Quantity n 0.19): 30 mm
Diameter of zone of inhibition (S. epidermidis 563; Quantity n 0.019): 24 mm
Diameter of zone of inhibition (S. epidermidis 563; Quantity n 0.1): 28 mm
Diameter of zone of inhibition (S. epidermidis 563; Quantity n 0.19): 32 mm
Diameter of zone of inhibition (S. epidermidis 847; Quantity n [mol] 0.019): 12 mm
Diameter of zone of inhibition (S. epidermidis 847; Quantity n [mol] 0.1): 26 mm
Diameter of zone of inhibition (S. epidermidis 847; Quantity n [mol] 0.19): 30 mm
chromatographic logP [1]: -3.5
Diameter of zone of inhibition (S. aureus 38418; Quantity n [mol] 0.019): 30 mm
Diameter of zone of inhibition (S. aureus 38418; Quantity n [mol] 0.1): 34 mm
Diameter of zone of inhibition (S. aureus 38418; Quantity n [mol] 0.19): 38 mm
Diameter of zone of inhibition (S. aureus ATCC 6538; Quantity n 0.019): 32 mm
Diameter of zone of inhibition (S. aureus ATCC 6538; Quantity n 0.1): 38 mm
Diameter of zone of inhibition (S. aureus ATCC 6538; Quantity n 0.19): 40 mm
Diameter of zone of inhibition ([2]; Quantity n 0.019): r
Diameter of zone of inhibition ([2]; Quantity n 0.1): 10 mm
Diameter of zone of inhibition ([2]; Quantity n 0.19): 14 mm
Diameter of zone of inhibition ([3]; Quantity n 0.019): r
Diameter of zone of inhibition ([3]; Quantity n 0.1): r
Diameter of zone of inhibition ([3]; Quantity n 0.19): 8 mm
Diameter of zone of inhibition ([4]; Quantity n 0.019): 18 mm
Diameter of zone of inhibition ([4]; Quantity n 0.1): 22 mm
Diameter of zone of inhibition ([4]; Quantity n 0.19): 26 mm
Diameter of zone of inhibition (S. aureus 33490; Quantity n [μmol] 0.019): 16 mm
Diameter of zone of inhibition (S. aureus 33490; Quantity n [μmol] 0.1): 24 mm
Diameter of zone of inhibition (S. aureus 33490; Quantity n [μmol] 0.19): 28 mm
Diameter of zone of inhibition (S. aureus 520; Quantity n [mol] 0.019): r
Diameter of zone of inhibition (S. aureus 520; Quantity n [mol] 0.1): r
Diameter of zone of inhibition (S. aureus 520; Quantity n [mol] 0.19): 8 mm
Diameter of zone of inhibition (S. aureus 39105; Quantity n 0.019): 16 mm
Diameter of zone of inhibition (S. aureus 39105; Quantity n 0.1): 24 mm
Diameter of zone of inhibition (S. aureus 39105; Quantity n 0.19): 26 mm
Diameter of zone of inhibition (S. aureus 34289; Quantity n [mol] 0.019): r
Diameter of zone of inhibition (S. aureus 34289; Quantity n [mol] 0.1): r
Diameter of zone of inhibition (S. aureus 34289; Quantity n [mol] 0.19): r
Diameter of zone of inhibition (S. aureus 526; Quantity n 0.019): r
Diameter of zone of inhibition (S. aureus 526; Quantity n 0.1): r
Diameter of zone of inhibition (S. aureus 526; Quantity n 0.19): r
Diameter of zone of inhibition (S. aureus 36881; Quantity n 0.019): r
Diameter of zone of inhibition (S. aureus 36881; Quantity n 0.1): 14 mm
Diameter of zone of inhibition (S. aureus 36881; Quantity n 0.19): 18 mm
Diameter of zone of inhibition ([5]; Quantity n 0.019): r
Diameter of zone of inhibition ([5]; Quantity n 0.1): r
Diameter of zone of inhibition ([5]; Quantity n 0.19): 10 mm
Diameter of zone of inhibition (B. subtilis AWD 166; Quantity n 0.019): 36 mm
Diameter of zone of inhibition (B. subtilis AWD 166; Quantity n 0.1): 38 mm
Diameter of zone of inhibition (B. subtilis AWD 166; Quantity n 0.19): 40 mm
Diameter of zone of inhibition (S. epidermidis 125; Quantity n 0.019): 26 mm
Diameter of zone of inhibition (S. epidermidis 125; Quantity n 0.1): 36 mm
Diameter of zone of inhibition (S. epidermidis 125; Quantity n 0.19): 40 mm
Diameter of zone of inhibition ([6]; Quantity n 0.019): 36^1 mm
Diameter of zone of inhibition ([6]; Quantity n 0.1): 38 mm
Diameter of zone of inhibition ([6]; Quantity n 0.19): 40 mm
